Patent publication US20240002405A1, “ANTIMICROBIAL COMPOUNDS, SYNTHESIS METHODS, AND USES THEREOF” (Ankh Life Sciences Limited, priority 2022, published 2024)
Converted amounts (≈) assume the structure as drawn. “And” between values parts separate entries of the source, which are not always exact repeats. Identical values can stand only once. Like-named read-outs stand apart in the source and are kept apart here.

Key:
Solubility in DMSO = format: physicochemical
[1] = system: engineered Salmonella typhimurium strain (umuC, β-galactosidase); details: without S9 activation
Description: The EBPI UMU-ChromoTest™ assay is used for the detection and quantification of genotoxicity of compounds and is based on the International Organization for Standardization protocol ISO 13829. The UMU-ChromoTest™ assay utilizes a native bacterial mechanism for the detection of compound genotoxicity. The bacteria used for the assay is an engineered Salmonella typhimurium strain developed to include a gene coding for the β-galactosidase (β-gal) enzyme tethered to the umuC, a damage response gene. DNA damage activates the SOS system to transcribe β-gal proportional to the level of SOS induction. The UMU-ChromoTest™ bacterial strain has modifications to increase sensitivity to genotoxins with (a) increased sensitivity for even limited damage, (b) modified outer membrane of the cell to increase permeability to exogenous materials, and (c) production of a color change on addition to chromogenic substrate (ONPG), which is a quantitative measure of genotoxic damage to bacterial DNA.
Rehydration of Dried Bacteria and Culture Growth: The bacteria were rehydrated and incubated at 37° C. for 16-18 hours. OD600 of the overnight culture should be 0.5 or at least above 0.1 at 600 nm.
Sample Preparation and Plate Setup: The dimer compounds were dissolved in DMSO. All dilution and controls were made in the solvent of 10% DMSO in sterile 0.85% saline. The pH of the compounds was adjusted to 7.0±0.2 before incubation with bacteria to facilitate bacterial growth and prevent degradation of ONPG later in the assay. The solutions of hydrochloric acid and sodium hydroxide were used to adjust pH with minimal addition volumes to prevent excessive sample dilution. Six samples were run at 4 dilutions at a time.
Preliminary Dilution of Bacteria: The overnight bacterial culture was diluted to 50% by performing a reinoculation with 5 mL of overnight growth and 5 mL of fresh Growth media. The reinoculated bacteria was inoculated for 1.5 hours at 37° C. The OD600 should be approximately 80% of the reading from overnight growth or slightly higher.
Preparation of Plate A: Distilled water (180 μL) was added to all wells, except for rows A to F, columns 1 to 3 and row H, columns 1 to 6. Rows A to F are used for 6 compounds per plate. The test compounds (360 μL) were added to the first three wells (three replicates) of the same microplate, such that wells 1-3 were a triplicate set of the highest concertation of test compound (360 μL). Wells 4-12 each contained 180 μL of distilled water. For dilution, half of the contents (180 μL) from wells 1-3 was transferred to wells 4-6 which makes a second triplicate set. For a third dilution, half of the contents from wells 4-6 were transferred to 7-9, and for the fourth triplicate set, half of the contents from wells 7-9 was transferred to 10-12. […]

[2] = system: VREF: E. faecalis resistant to vancomycin (ATCC 51299); test: Broth microdilution MIC assay, VREF; details: Enterococcus faecalis
Procedure: (§2) The concentration of compound required to visibly stop the growth of bacteria is known as minimum inhibitory concentration (MIC). Different concentrations of the compounds are tested for the exact same number of bacteria, and the growth is monitored with time.
(§3) Bacterial strains were purchased from the American Type Culture Collection (ATCC) for the studies.
(§4) The MIC assay procedure follows the guidelines set by the Clinical Laboratory Sciences Institute (CLSI).
(§5) To do this, bacteria were transferred from pure agar culture, aseptically transferred in 5 mL of Cation-Adjusted Mueller-Hinton Broth (CAMHB). The broth was incubated overnight at 35° C. to stationary phase to achieve a turbidity suspension. A spectrophotometer (SpectraMax ID5) was used to measure the turbidity (optical density—OD at 625 nm). The inoculum was prepared by adjusting the turbidity of overnight culture to 0.5 McFarland, which is equal to the defined number of bacteria 1×10^8 CFU/ml.
(§6) (b) Compound Dilution: All compounds used in the study were dissolved in sterile ultra-pure DMSO (VWR International, PA, USA) and maintained at −80° C. Stock solution of the compound was freshly prepared the day of use or is prepared from a frozen stock solution stored at −80° C. […] The compound solution was prepared at a desired concentration in DMSO, and 1/10 dilution was performed in a sterile CAMHB medium. This 10-fold dilution of stock solution was used for a 2-fold serial dilution in a 96-well plate to observe an inhibitory effect of the compound on bacterial growth. 100 μL of diluted drug solution was transferred to a first column of the 96-well plate. 50 μL of sterile CAMHB was transferred to each well from well 2 to well 12. Next, 50 μL was removed from well 1 and added to well 2. The contents from well 2 were mixed by pipetting up and down. Next, 50 µL were removed from well 2 and added to well 3. This process was continued till well 11 is reached. 50 μL was discarded from the well 11. Each compound concentration was tested in triplicate.
(§7) (c) Inoculation of 96-well plate: The same number of bacteria (1×10^5 CFU/mL) were prepared after 150-fold dilution of 0.5 McFarland inoculum and used to add in the wells of different drug concentrations. 50 μL of working inoculum was carefully added to each well, except the sterility well 12. Mixing is performed by gently flushing the inoculum in and out of the pipette tip four or five times, avoiding splashing and bubble formation.
(§8) (d) Incubation: Plates were incubated at 35° C. for 24 hours without shaking or agitation.
(§9) (e) Determination of MIC: After 18-24 hours of incubation, the plates were read for MIC. SpectraMax iD5 microplate reader was used to measure turbidity at different time points. Turbidity (OD) increases as the bacteria grow over time.

E. faecalis (ATCC 29212) [3] = test: Broth microdilution MIC assay, E. faecalis; details: Enterococcus faecalis, ATCC29212, read-out: MIC (bacterial growth inhibition)
Procedure: as §2, §3, §4, §5, §6, §7, §8, §9

S. aureus (ATCC 29213) [4] = test: Broth microdilution MIC assay, S. aureus; details: for MIC: Staphylococcus aureus, ATCC29213, read-out: MIC (bacterial growth inhibition), S. aureus; for higher efficacy than harmaline: antibacterial efficacy versus harmaline; for higher antibacterial activity than harmaline dimer without a substitution (GZ440/6): versus GZ440/6
Procedure: as §2, §3, §4, §5, §6, §7, §8, §9

MRSA (ATCC 43300) = test: Minimum bactericidal concentration (MBC) assay, MRSA; format: cell-based; details: Staphylococcus aureus, MRSA
Procedure: (§1) (f) Determination of MBC: MBC was determined by sampling all the macroscopically clear wells. Before sampling, the wells were gently mixed by flushing them with a pipette, and a 5 μL was removed and placed on an agar plate suitable for the growth of the microbe being tested. The agar plate was divided into three parts to test three trials of a single concentration. The sample was allowed to be absorbed into the agar for ˜30 minutes. The plates were then incubated for 24 hours at 37° C. After incubation, the plates were examined to determine the compound concentration at which 99.9% killing was achieved.

E. coli (ATCC 25922) = test: Broth microdilution MIC assay, E. coli; details: E. coli
Procedure: as §2, §3, §4, §5, §6, §7, §8, §9

[5] = system: gram positive and negative bacteria; test: Antibacterial testing against gram positive and negative bacteria; format: cell-based
Procedure: In addition to the harmaline dimers compounds, other bicyclic indole compounds (203, 233, 476/6 and 504/6,) were also tested against gram positive and negative bacteria. Particularly, the indole ethyl urea molecules 203, 233 and the tryptamide dimer molecules 476/6, 504/6, as shown below, were tested.

[6] = system: P. aeruginosa (ATCC 10145); test: Broth microdilution MIC assay, P. aeruginosa
Procedure: as §2, §3, §4, §5
(b) Compound Dilution: All compounds used in the study were dissolved in sterile ultra-pure DMSO (VWR International, PA, USA) and maintained at −80° C. […]
(e) Determination of MIC: After 18-24 hours of incubation, the plates were read for MIC. SpectraMax iD5 microplate reader was used to measure turbidity at different time points. […]

S. aureus (ATCC 29213) [7] = test: Minimum bactericidal concentration (MBC) assay, S. aureus; format: cell-based; details: Staphylococcus aureus, S. aureus
Procedure: as §1

[8] = system: MRSA: S. aureus resistant to methicillin and oxacillin (ATCC 43300); test: Broth microdilution MIC assay, MRSA; details: Staphylococcus aureus, ATCC43300|MRSA, read-out: MIC (bacterial growth inhibition)
Procedure: as §2, §3, §4, §5, §6, §7, §8, §9

E. faecalis (ATCC 29212) [9] = test: Minimum bactericidal concentration (MBC) assay, E. faecalis; format: cell-based, Enterococcus faecalis; details: for MBC: Enterococcus faecalis, ATCC29212
Procedure: as §1

VREF (ATCC 51299) = test: Minimum bactericidal concentration (MBC) assay, VREF; format: cell-based, Enterococcus faecalis; details: VREF; for MBC: Enterococcus faecalis, ATCC51299, read-out: MBC (bactericidal activity)
Procedure: as §1

Vero-E6 cells = test: CytoTox 96 Nonradioactive Cytotoxicity Assay (LDH release)
Procedure: Cytotoxicity was measured using Promega™ CytoTox 96™ Nonradioactive Cytotoxicity Assay (cat #G1780, Promega, Madison, WI, USA).
Cytotoxicity was measured using the Promega™ CytoTox 96™ Nonradioactive Cytotoxicity Assay kit (cat #G1780, Promega, Madison, WI, USA) in 50 μL reactions and 96-well format (cat #161093, Thermo Fisher Scientific, Waltham, MA, USA) according to the manufacturer's protocol, except we used 20 μL of 10× Lysis Solution per 100 μL of sample and incubated at 37° C. for 30 minutes to generate the maximum LDH release control. The assay was measured using a BioTeK Synergy™ HT plate reader (model #7091000, BioTek, Winooski, VT, USA) at an optical density of 490 nm (OD490). […] LLC-MK2 cells were assessed for cytotoxicity at 5 days, whereas Vero E6 and Calu-3 cells were assessed for cytotoxicity every 24 hours from 1-5 days. Percent cytotoxicity was calculated by dividing the experimental LDH release at OD490 b.

SARS-CoV-2 = test: RT-PCR quantitation of viral copy number; format: cell-based; details: 120 hours after infection
[10] = system: SARS-CoV-2 isolate USA-WA1/2020 in Vero-E6 cells; test: Virus plaque formation assay; format: cell-based
[11] = ATCC51299, 24 h, read-out: MIC (bacterial growth inhibition)
[12] = ATCC51299, 48 h, read-out: MIC (bacterial growth inhibition)
[13] = ATCC51299, read-out: MIC (bacterial growth inhibition)
[14] = ATCC29213, 24 h, read-out: MBC (kills bacteria)
[15] = ATCC29213, read-out: MBC (bactericidal activity)

Row | Structure (SMILES) | solubility in DMSO (time to dissolve) (Solubility in DMSO) | MIC [2, 11] | MIC [2, 12] | MIC [2, 13] | MIC (E. faecalis (ATCC 29212) [3]) | MIC (S. aureus (ATCC 29213) [4]; time not given) | higher efficacy than harmaline (S. aureus (ATCC 29213) [4]) | higher antibacterial activity than harmaline dimer without a substitution (GZ440/6) (S. aureus (ATCC 29213) [4]) | MBC (MRSA (ATCC 43300); read-out: MBC) | MBC (MRSA (ATCC 43300); read-out: MRSA-MBC) | MIC (bacterial growth inhibition) (E. coli (ATCC 25922)) | bacteriostatic/bactericidal activity [5] | MIC (bacterial growth inhibition) [6] | MBC (S. aureus (ATCC 29213) [7]; [14]) | MBC (S. aureus (ATCC 29213) [7]; [15]) | MIC ([8]; 24 h) | MIC ([8]; 90 h) | MBC (kills bacteria) (E. faecalis (ATCC 29212) [9]) | MBC (E. faecalis (ATCC 29212) [9]) | MBC (VREF (ATCC 51299)) | further results
1 | COc1ccc2c3c([nH]c2c1)C(CC(CC1=NCCc2c1[nH]c1cc(OC)ccc21)c1c[nH]cn1)=NCC3 [1,1′-(2-(1H-imidazol-4-yl)propane-1,3-diyl)bis(7-methoxy-4,9-dihydro-3Hpyrido[3,4-b]indole)] | 30 to 40 min | 63.3 µg/mL (≈ 125 µM) | 127 µg/mL (≈ 250 µM) | > 127 µg/mL | 50.6 µg/mL (≈ 99.9 µM) | 50.6 µg/mL | ~15 fold | 1.75 fold | 63.3 µg/mL | 125 µM | no inhibition was observed | show bacteriostatic and bactericidal activity | no inhibition was observed | 101 µg/mL | 200 µM | 15.8 µg/mL (≈ 31.2 µM) | 31.7 µg/mL (≈ 62.5 µM) | 101.2 µg/mL (≈ 200 µM) | 200 µM (≈ 101 µg/mL) | > 127 µg/mL | genotoxic concentration (not genotoxic up to / toxicity above) [1]: above 85 μM
2 | COc1ccc2c3c([nH]c2c1)C(CCCC1=NCCc2c1[nH]c1cc(OC)ccc21)=NCC3 [GZ440/6] | – | 55 µg/mL (≈ 125 µM) | 110 µg/mL (≈ 250 µM) | > 110 µg/mL | 88 µg/mL and 200 µM | 88 µg/mL | – | – | 110 µg/mL | 250 µM | – | show bacteriostatic and bactericidal activity | – | – | – | 27.5 µg/mL (≈ 62.5 µM) | 55 µg/mL (≈ 125 µM) | – | – | – | MIC (S. aureus (ATCC 29213) [4]): 200 µM; cytotoxicity (Vero-E6 cells; 20 μM and 40 μM): no significant cytotoxicity; cytotoxicity (Vero-E6 cells; Vero-E6 cells, 2.0 μM, 5.0 μM and 10.0 μM): negligible cytotoxicity; viral load (viral RNA levels) (SARS-CoV-2; higher concentrations (20 and 40 μM)): decreased viral load; viral load (viral RNA levels) (SARS-CoV-2; lower concentrations): not in lower concentrations; inhibition of plaque formation ([10]; 2.0, 5.0 and 10.0 μM, CoV-2 in Vero-E6 cells at 120 h after infection): negligible inhibition; inhibition of plaque formation ([10]; at 20 μM and above): inhibition of plaque formation was significant; MBC (bactericidal activity) (VREF (ATCC 51299)): No bactericidal action was observed
3 | COc1ccc2c3c([nH]c2c1)C(CC(CC1=NCCc2c1[nH]c1cc(OC)ccc21)c1cccnc1)=NCC3 [GK517.3, 1,1′-(2-(pyridin-3-yl)propane-1,3-diyl)bis(7-methoxy-4,9-dihydro-3H-pyrido[3,4-b]indole)] | 10 to 15 min | 32.4 µg/mL (≈ 62.5 µM) | – | – | 51.7 µg/mL (≈ 99.9 µM) | 51.7 µg/mL | ~15 fold | 1.75 fold | 32.4 µg/mL | 62.5 µM | no inhibition was observed | show bacteriostatic and bactericidal activity | no inhibition was observed | 104 µg/mL | 200 µM | 8 µg/mL (≈ 15.5 µM) | 16.2 µg/mL (≈ 31.3 µM) | 103.5 µg/mL (≈ 200 µM) | 200 µM (≈ 104 µg/mL) | 64.7 µg/mL (≈ 125 µM) | MIC ([2]; ATCC51299, 90 h, read-out: MIC (bacterial growth inhibition)): 64.7 µg/mL (≈ 125 µM)
